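Grown in 96-well plates, cells were treated for 48 hours with each compound at five concentrations. Insufficient inhibition: endpoint recorded as highest concentration tested. GI50 is the concentration that inhibits growth by half.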 Active and inactive are the calls of the source. No stated cut-off is given here; in the data, active = GI50 up to about 1.1 µM and inactive = higher.
Assays:
Experiment in all cases: NCI anticancer screen, dose series, 48 h
A498 = tested on: A498
BT-549 = tested on: BT-549
HCT-15 = tested on: HCT-15
HOP-62 = tested on: HOP-62
K562 = tested on: K562
MCF7 = tested on: MCF7
NCI-H460 = tested on: NCI-H460
SF-295 = tested on: SF-295
SF-539 = tested on: SF-539
SK-MEL-28 = tested on: SK-MEL-28
SK-OV-3 = tested on: SK-OV-3
SN12C = tested on: SN12C
SNB-75 = tested on: SNB-75
SW-620 = tested on: SW-620
UACC-257 = tested on: UACC-257
UO-31 = tested on: UO-31
NCI-H522 = tested on: NCI-H522

| SMILES | GI50 (A498) | GI50 (BT-549) | GI50 (HCT-15) | GI50 (HOP-62) | GI50 (K562) | GI50 (MCF7) | GI50 (NCI-H460) | GI50 (SF-295) | GI50 (SF-539) | GI50 (SK-MEL-28) | GI50 (SK-OV-3) | GI50 (SN12C) | GI50 (SNB-75) | GI50 (SW-620) | GI50 (UACC-257) | GI50 (UO-31) | GI50 (NCI-H522) |
| --- | --- | --- | --- | --- | --- | --- | --- | --- | --- | --- | --- | --- | --- | --- | --- | --- | --- |
| CC[C@]12C=CCN3CC[C@@]4(c5cc(Br)c(OC)c([N+](=O)[O-])c5N(C)[C@H]4[C@@](O)(C(=O)OC)[C@@H]1OC(C)=O)[C@@H]32 | 44.5 µM (inactive) | > 100 µM (inactive) | 65.3 µM | 87.5 µM (inactive) | 0.443 µM (active) | 37.4 µM (inactive) | 40.8 µM (inactive) | 37 µM (inactive) | > 100 µM (inactive) | 63.4 µM (inactive) | > 100 µM (inactive) | 88.7 µM (inactive) | 30.5 µM (inactive) | 23.8 µM (inactive) | 33.3 µM (inactive) | 89.5 µM (inactive) |  |
| OCC(O)COCn1cc(Cn2ncc3c(NCc4ccccc4)ncnc32)nn1 (configuration not stated) | > 100 µM (inactive) | > 100 µM (inactive) | > 100 µM | > 100 µM (inactive) |  | > 100 µM (inactive) |  | > 100 µM (inactive) | > 100 µM (inactive) | > 100 µM (inactive) | > 100 µM (inactive) | > 100 µM (inactive) |  | > 100 µM (inactive) | > 100 µM (inactive) | > 100 µM (inactive) | 18.7 µM (inactive) |
| O=C1Cc2cn[nH]c2-c2ccccc2N1 | > 94.4 µM (inactive) | 22.5 µM (inactive) | 23.8 µM | 32.1 µM (inactive) | 21.9 µM (inactive) | 39 µM (inactive) | 24.2 µM (inactive) | 61 µM (inactive) | 38.8 µM (inactive) | 63.1 µM (inactive) | > 85.7 µM (inactive) | > 44.4 µM (inactive) | 79.3 µM (inactive) | 17.2 µM (inactive) | 23.5 µM (inactive) | 32.7 µM (inactive) | 21.4 µM (inactive) |
| COc1cc(O)c2c(c1)C(O)C(O)CC1OC1C(=O)/C=C/CC(C)OC2=O (configuration not stated) | 5.42 µM (inactive) | 0.979 µM (active) | 2.93 µM | 18 µM (inactive) | 1.7 µM (inactive) | 4.07 µM (inactive) | 7.03 µM (inactive) | 15.6 µM (inactive) | 3.99 µM (inactive) | 0.194 µM (active) | 19.7 µM (inactive) | 3.72 µM (inactive) | 6.65 µM (inactive) | 0.412 µM (active) | 0.0849 µM (active) | 1.17 µM (inactive) | 1.52 µM (inactive) |
| C/C(=C\c1csc(C)n1)[C@@H]1C[C@@H]2O[C@]2(C)CCC[C@H](C)[C@H](O)[C@@H](C)C(=O)C(C)(C)[C@@H](O)CC(=O)O1 [PATUPILONE] | < 0.0001 µM (active) | < 0.0001 µM (active) | < 0.0001 µM | < 0.0001 µM (active) | < 0.0001 µM (active) | < 0.0001 µM (active) | < 0.0001 µM (active) | < 0.0001 µM (active) | < 0.0001 µM (active) | < 0.0001 µM (active) | < 0.0001 µM (active) | < 0.0001 µM (active) | < 0.0001 µM (active) | < 0.0001 µM (active) | < 0.0001 µM (active) | < 0.0001 µM (active) | < 0.0001 µM (active) |
| Cc1cccc2c1C(=O)[C@](C)([C@]1(C)Nc3cccc(C)c3C1=O)N2 | 60.5 µM (inactive) | 20.8 µM (inactive) | 18.2 µM | 23.3 µM (inactive) | 30.8 µM (inactive) | 45.4 µM (inactive) | 31 µM (inactive) | 20.8 µM (inactive) | 29 µM (inactive) | 37.6 µM (inactive) | 21.7 µM (inactive) | 29.6 µM (inactive) | 11 µM (inactive) | 30.7 µM (inactive) | 30.8 µM (inactive) | 18.1 µM (inactive) | 28.6 µM (inactive) |
| C[C@@](Br)(C(=O)O)[C@H](Br)C(=O)O | > 100 µM (inactive) | > 100 µM (inactive) | > 100 µM | > 100 µM (inactive) | > 100 µM (inactive) | > 100 µM (inactive) | > 100 µM (inactive) | > 100 µM (inactive) |  | > 100 µM (inactive) | > 100 µM (inactive) | > 100 µM (inactive) | 81.3 µM (inactive) | > 100 µM (inactive) | > 100 µM (inactive) | > 100 µM (inactive) |  |
| COC(=O)/C=C\C(C#N)(C#N)/N=C/c1cccs1 | 19.9 µM (inactive) | 7.89 µM (inactive) | 2.13 µM | 17.6 µM (inactive) | 3.95 µM (inactive) | 2.01 µM (inactive) | 19.6 µM (inactive) | 18.8 µM (inactive) |  | 8.83 µM (inactive) | 19 µM (inactive) | 14.7 µM (inactive) | 15.3 µM (inactive) | 1.87 µM (inactive) | 14.4 µM (inactive) | 2.26 µM (inactive) | 0.783 µM (active) |
| COc1cc2c3c(c1O)-c1c(ccc(OC)c1OC)CC3N(C)CC2 (configuration not stated) | > 100 µM (inactive) | > 100 µM (inactive) | > 100 µM |  |  | > 100 µM (inactive) | > 100 µM (inactive) | > 100 µM (inactive) | > 100 µM (inactive) |  | > 100 µM (inactive) | > 100 µM (inactive) | > 100 µM (inactive) | > 100 µM (inactive) | > 100 µM (inactive) | > 100 µM (inactive) | > 100 µM (inactive) |
| COc1ccc2c(-c3ccc(OCCN(C)C)cc3)c(Oc3ccc(Cl)cc3)c(=O)oc2c1 | 14 µM (inactive) | 14.7 µM (inactive) | 3.35 µM | 4.21 µM (inactive) | 2.54 µM (inactive) | 2.52 µM (inactive) | 5.58 µM (inactive) | 2.12 µM (inactive) | 3.74 µM (inactive) | 1.82 µM (inactive) | 7.4 µM (inactive) | 20.2 µM (inactive) | 7.19 µM (inactive) | 5.41 µM (inactive) | 2.05 µM (inactive) | 3.28 µM (inactive) | 4.07 µM (inactive) |
| COC(Cc1ccccc1)NC(C)=O (configuration not stated) | > 100 µM (inactive) | > 100 µM (inactive) | > 100 µM | > 100 µM (inactive) | > 100 µM (inactive) | > 100 µM (inactive) | > 100 µM (inactive) | > 100 µM (inactive) | > 100 µM (inactive) | > 100 µM (inactive) | > 100 µM (inactive) | > 100 µM (inactive) | > 100 µM (inactive) | > 100 µM (inactive) | > 100 µM (inactive) | > 100 µM (inactive) | > 100 µM (inactive) |
| C#CCOC(=O)C(N)CC(N)=O (configuration not stated) | > 100 µM (inactive) | > 100 µM (inactive) | > 100 µM | > 100 µM (inactive) | 21.2 µM (inactive) | > 100 µM (inactive) | > 100 µM (inactive) | > 100 µM (inactive) | > 100 µM (inactive) | > 100 µM (inactive) | > 100 µM (inactive) | > 100 µM (inactive) | > 100 µM (inactive) | > 100 µM (inactive) | > 100 µM (inactive) | > 100 µM (inactive) | > 100 µM (inactive) |
| CC(=O)Nc1ccc2c3c(cc(O)c2c1)N(C(=O)CCCCC(=O)Nc1ccc2c4c(cc(O)c2c1)N(C(=O)OC(C)(C)C)CC4CCl)CC3CCl (configuration not stated) | 1.94 µM (inactive) | 1.77 µM (inactive) | 16.7 µM | 3.05 µM (inactive) | 2.62 µM (inactive) | 0.373 µM (active) | 1.83 µM (inactive) | 4.66 µM (inactive) | 2.25 µM (inactive) | 3.3 µM (inactive) | 4.4 µM (inactive) | 2.38 µM (inactive) | 1.82 µM (inactive) | 2.82 µM (inactive) | 2.26 µM (inactive) | 24.3 µM (inactive) | 0.74 µM (active) |
| O=C(O)C(O)c1ccc(F)cc1 (configuration not stated) | > 100 µM (inactive) | > 100 µM (inactive) | > 100 µM | > 100 µM (inactive) | > 100 µM (inactive) | > 100 µM (inactive) | > 100 µM (inactive) | > 100 µM (inactive) |  | > 100 µM (inactive) | > 100 µM (inactive) | > 100 µM (inactive) | > 100 µM (inactive) | > 100 µM (inactive) | > 100 µM (inactive) | > 100 µM (inactive) | > 100 µM (inactive) |
| Nc1cc(CO)cc(Nc2c3ccccc3nc3occc23)c1 | 51.4 µM (inactive) | 19.4 µM (inactive) | 25.6 µM | 37.2 µM (inactive) |  | 20 µM (inactive) | 21.2 µM (inactive) | 37.7 µM (inactive) | 24.8 µM (inactive) | 36.4 µM (inactive) | 36.5 µM (inactive) | 39 µM (inactive) |  |  | 42.6 µM (inactive) | 32.2 µM (inactive) | 14.4 µM (inactive) |
| CC(C)(CC(=O)Nc1ccccc1)C(=O)O | > 100 µM (inactive) | > 100 µM (inactive) | > 100 µM | > 100 µM (inactive) | > 100 µM (inactive) | > 100 µM (inactive) | > 100 µM (inactive) | > 100 µM (inactive) | > 100 µM (inactive) | > 100 µM (inactive) | > 100 µM (inactive) | > 100 µM (inactive) |  | > 100 µM (inactive) | > 100 µM (inactive) | > 100 µM (inactive) |  |
| CC1=CC(=O)C2=C(C)CCC3C(C)C(=O)OC3C12 (configuration not stated) | > 100 µM (inactive) | > 100 µM (inactive) | > 100 µM | > 100 µM (inactive) |  | > 100 µM (inactive) | > 100 µM (inactive) | > 100 µM (inactive) | > 100 µM (inactive) | > 100 µM (inactive) | > 100 µM (inactive) | > 100 µM (inactive) |  | > 100 µM (inactive) | > 100 µM (inactive) | > 100 µM (inactive) | > 100 µM (inactive) |
| CNC(=O)OCC1=C(COC(=O)NC)CN(c2ccccc2)C1 | > 100 µM (inactive) | > 100 µM (inactive) | > 100 µM | > 100 µM (inactive) | > 100 µM (inactive) | > 100 µM (inactive) | > 100 µM (inactive) | > 100 µM (inactive) | > 100 µM (inactive) | > 100 µM (inactive) | > 100 µM (inactive) | > 100 µM (inactive) | > 100 µM (inactive) | > 100 µM (inactive) | > 100 µM (inactive) | > 100 µM (inactive) |  |
